According to patent US7868037B2 (PTC Therapeutics, Inc., priority 2004, dated 2011):

What was measured:
HCV replicon = assay: microbe, parasite or virus in culture; type: cell-based, hepatitis C virus; conditions: Hepatitis C virus, read-out: Replicon IC50 μM

SMILES | IC50 (HCV replicon) [µM] | melting point [°C]
CCn1c(-c2ccc(N)cc2)c(C#N)c2ccc(OC)cc21 [Compound 55, 2-(4-aminophenyl)-1-ethyl-6-methoxy-1H-indole-3-carbonitrile] | > 2 | 183 to 185
CCn1cc(-c2ccno2)c2ccc(OC)cc21 [Compound 58, 1-ethyl-3-isoxazol-5-yl-6-methoxy-1H-indole] | > 2 | 76 to 79
CCn1cc(-c2ccn[nH]2)c2ccc(OC)cc21 [Compound 59, 1-ethyl-6-methoxy-3-(2H-pyrazol-3-yl)-1H-indole] | > 2 | 81 to 85
CCn1c(C#Cc2ccc(F)cc2)c(C#N)c2ccc(OC)cc21 [Compound 67, 1-ethyl-2-(4-fluorophenylethynyl)-6-methoxy-1H-indole-3-carbonitrile] | 0.5 to 2 | 132 to 136
CCn1cc(-c2cnco2)c2ccc(C(=O)OC)cc21 [Compound 72, methyl 1-ethyl-3-oxazol-5-yl-1H-indole-6-carboxylate] | > 2 | 144 to 149
CCn1cc(-c2ncco2)c2ccc(C(=O)OC)cc21 [Compound 75, methyl 1-ethyl-3-oxazol-2-yl-1H-indole-6-carboxylate] | > 2 | 118 to 123
CCn1c(-c2ccc(N3CCCS3(=O)=O)cc2)c(C#N)c2ccc(OC)cc21 [Compound 84, 2-[4-(1,1-dioxo-1λ^6-isothiazolidin-2-yl)phenyl]-1-ethyl-6-methoxy-1H-indole-3-carbonitrile] | < 0.5 | 232 to 237
CCCOC(=O)Nc1ccc2c(C#N)cn(-c3ccc(OC)cc3)c2c1 [Compound 97, [3-Cyano-1-(4-methoxyphenyl)-1H-indol-6-yl]-carbamic acid propyl ester] | > 2 | 164 to 167
CCn1c(COc2ccccc2)c(C#N)c2ccc(OC)cc21 [Compound 99, 1-ethyl-6-methoxy-2-phenoxymethyl-1H-indole-3-carbonitrile] | > 2 | 123.4 to 123.8
CCn1cc(-c2cc(-c3ccc(OC)cc3)on2)c2ccc(OC)cc21 [Compound 116, 1-ethyl-6-methoxy-3-[5-(4-methoxyphenyl)-isoxazol-3-yl]-1H-indole] | > 2 | 116 to 118
CCOC(=O)Nc1ccc(-c2c(C#N)c3ccc(OC)cc3n2CC)cc1 [Compound 121, [4-(3-cyano-1-ethyl-6-methoxy-1H-indol-2-yl)-phenyl]-carbamic acid ethyl ester] | 0.5 to 2 | 167 to 169
CCn1c(-c2ccc(NC(C)=O)cc2)c(C#N)c2ccc(OC)cc21 [Compound 128, N-[4-(3-Cyano-1-ethyl-6-methoxy-1H-indol-2-yl)-phenyl]-acetamide] | > 2 | 218 to 220
CCn1c(-c2ccc(NS(C)(=O)=O)cc2)c(C#N)c2ccc(OC)cc21 [Compound 129, N-[4-(3-Cyano-1-ethyl-6-methoxy-1H-indol-2-yl)-phenyl]-methanesulfonamide] | 0.5 to 2 | 188 to 190
CCn1c(C#Cc2ccc(NS(C)(=O)=O)cc2)c(C#N)c2ccc(OC)cc21 [Compound 130, N-[4-(3-cyano-1-ethyl-6-methoxy-1H-indol-2-ylethynyl)-phenyl]-methanesulfonamide] | < 0.5 | 227 to 233
CCn1c(C#Cc2ccc(NC(C)=O)cc2)c(C#N)c2ccc(OC)cc21 [Compound 138, N-[4-(3-cyano-1-ethyl-6-methoxy-1H-indol-2-ylethynyl)-phenyl]-acetamide] | 0.5 to 2 | 235 to 239
CCn1cc(C#N)c2cc(-c3ccsc3)ccc21 [Compound 141, 1-ethyl-5-thiophen-3-yl-1H-indole-3-carbonitrile] | > 2 | 145 to 146
CCn1c(C#Cc2ccc(NC(=O)NCCCl)cc2)c(C#N)c2ccc(OC)cc21 [Compound 156, 1-(2-chloroethyl)-3-[4-(3-cyano-1-ethyl-6-methoxy-1H-indol-2-ylethynyl)-phenyl]urea] | 0.5 to 2 | 205 to 209
CCn1c(C#Cc2ccc(N(C)S(=O)(=O)CC)cc2)c(C#N)c2ccc(OC)cc21 [Compound 157] | 0.5 to 2 | 149 to 153
CCn1c(C#Cc2ccc(N3CCNC3=O)cc2)c(C#N)c2ccc(OC)cc21 [Compound 166, 1-ethyl-6-methoxy-2-[4-(2-oxo-imidazolidin-1-yl)-phenylethynyl]-1H-indole-3-carbonitrile] | < 0.5 | 236 to 240
CCn1c(-c2ccc(N(C)S(C)(=O)=O)cc2)c(C#N)c2ccc(OC)cc21 [Compound 180, N-[4-(3-cyano-1-ethyl-6-methoxy-1H-indol-2-yl)-phenyl]-N-methyl methanesulfonamide] | 0.5 to 2 | 170 to 171

SMILES | IC50 (HCV replicon) [µM] | melting point [°C]
CCn1c(-c2ccc(NS(C)(=O)=O)cc2)c(C#N)c2ccc(O)cc21 [Compound 189, N-[4-(3-cyano-1-ethyl-6-hydroxy-1H-indol-2-yl)-phenyl]-methanesulfonamide] | > 2 | 252 to 253
CCn1c(C#Cc2ccc(NC(=O)C3CC3)cc2)c(C#N)c2ccc(O)cc21 [Compound 194, cyclopropanecarboxylic acid [4-(3-cyano-1-ethyl-6-hydroxy-1H-indol-2-ylethynyl)-phenyl]amide] | 0.5 to 2 | 278 to 284
CCNC(=O)Nc1cccc(C#Cc2c(C#N)c3ccc(OC)cc3n2CC)c1 [Compound 220, 1-[3-(3-cyano-1-ethyl-6-methoxy-1H-indol-2-ylethynyl)phenyl]-3-ethyl urea] | 0.5 to 2 | 219 to 223
COC(=O)c1cccc(-c2noc(-c3[nH]c4cc(OC)ccc4c3C#N)n2)c1 [Compound 226, methyl 3-[5-(3-cyano-6-methoxy-1H-indol-2-yl)-[1,2,4]oxadiazol-3-yl]benzoate] | > 2 | 294 to 295
CCn1c(C#Cc2ccc(NC=O)cc2)c(C#N)c2ccc(OC)cc21 [Compound 241, N-[4-(3-cyano-1-ethyl-6-methoxy-1H-indol-2-ylethynyl)-phenyl]-formamide] | > 2 | 184 to 188
CCn1c(-c2ccc(C(=O)N3CCOCC3)cc2)c(C#N)c2cc(OC)ccc21 [Compound 245, 1-ethyl-5-methoxy-2-[4-(morpholine-4-carbonyl)-phenyl]-1H-indole-3-carbonitrile] | > 2 | 192 to 195
CCn1c(-c2ccc(OCCOC)cc2)c(C#N)c2ccc(OC)cc21 [Compound 248, 1-ethyl-6-methoxy-2-[4-(2-methoxyethoxy)-phenyl]-1H-indole-3-carbonitrile] | 0.5 to 2 | 117 to 121
CCn1c(-c2ccc(OCCBr)cc2)c(C#N)c2ccc(OC)cc21 [Compound 253, 2-[4-(2-bromoethoxy)-phenyl]-1-ethyl-6-methoxy-1H-indole-3-carbonitrile] | 0.5 to 2 | 121 to 125
CCn1c(-c2ccc(OCCN3CCOCC3)cc2)c(C#N)c2ccc(OC)cc21 [Compound 261, 1-ethyl-6-methoxy-2-[4-(2-morpholin-4-yl-ethoxy)-phenyl]-1H-indole-3-carbonitrile] | 0.5 to 2 | 138 to 143
CCn1c(-c2ccc(S(C)(=O)=O)cc2)c(C#N)c2ccc(OC)cc21 [Compound 265, 1-ethyl-2-(4-methanesulfonylphenyl)-6-methoxy-1H-indole-3-carbonitrile] | > 2 | 204 to 206
CCn1c(-c2ccc(OCCN=[N+]=[N-])cc2)c(C#N)c2ccc(OC)cc21 [Compound 266, 2-[4-(2-azidoethoxy)phenyl]-1-ethyl-6-methoxy-1H-indole-3-carbonitrile] | 0.5 to 2 | 96 to 99
CCn1c(-c2ccc(OCCN)cc2)c(C#N)c2ccc(OC)cc21 [Compound 267, 2-[4-(2-aminoethoxy)phenyl]-1-ethyl-6-methoxy-1H-indole-3-carbonitrile] | > 2 | 106 to 112
CCn1c(-c2ccc(OCCNS(C)(=O)=O)cc2)c(C#N)c2ccc(OC)cc21 [Compound 268, N-{2-[4-(3-cyano-1-ethyl-6-methoxy-1H-indol-2-yl)-phenoxy]-ethyl}methanesulfonamide] | 0.5 to 2 | 137 to 143
CCn1c(-c2ccc(OCCNC(C)=O)cc2)c(C#N)c2ccc(OC)cc21 [Compound 274, N-{2-[4-(3-cyano-1-ethyl-6-methoxy-1H-indol-2-yl)-phenoxy]-ethyl}acetamide] | > 2 | 166 to 172
CCNC(=O)NCCOc1ccc(-c2c(C#N)c3ccc(OC)cc3n2CC)cc1 [Compound 279, 1-{2-[4-(3-cyano-1-ethyl-6-methoxy-1H-indol-2-yl)-phenoxy]ethyl}-3-ethyl-urea] | > 2 | 197 to 202
CCn1c(-c2ccc(OCCNC=O)cc2)c(C#N)c2ccc(OC)cc21 [Compound 280, N-{2-[4-(3-cyano-1-ethyl-6-methoxy-1H-indol-2-yl)-phenoxy]ethyl}formamide] | > 2 | 89 to 95
CCn1c(-c2ccc(OCC(=O)N3CC[C@H](O)C3)cc2)c(C#N)c2ccc(OC)cc21 [Compound 285, 1-ethyl-2-{4-[2-(3-hydroxypyrrolidin-1-yl)-2-oxo-ethoxy]phenyl}-6-methoxy-1H-indole-3-carbonitrile] | > 2 | 185 to 190
CCn1c(-c2cccc(O)c2)c(C#N)c2ccc(OC)cc21 [Compound 288, 1-ethyl-2-(3-hydroxyphenyl)-6-methoxy-1H-indole-3-carbonitrile] | > 2 | 194 to 199
CCn1c(-c2ccc(O)c(N)c2)c(C#N)c2ccc(OC)cc21 [Compound 322, 2-(3-amino-4-hydroxyphenyl)-1-ethyl-6-methoxy-1H-indole-3-carbonitrile] | > 2 | 223 to 230
